Experimental data from paper PMC5218480 (PLoS ONE, 2017).

System: MV-4-11 cells
Assay: Gene expression microarray analysis (Affymetrix PrimeView) and GSEA
Type: cell-based, human
Design: RFU PODN (11730768_x_at) / Fold change /veh PODN (11730768_x_at) / RFU LINC00158 (11744669_a_at) / Fold change /veh LINC00158 (11744669_a_at) / RFU DUSP10 (11751237_a_at) / Fold change /veh DUSP10 (11751237_a_at) / RFU ID3 (11757404_x_at) / Fold change /veh ID3 (11757404_x_at) / RFU PLEKHG5 (11737974_s_at) / Fold change /veh PLEKHG5 (11737974_s_at) / RFU LRRC4B (11730491_at) / Fold change /veh LRRC4B (11730491_at) / RFU GIMAP4 (11747438_a_at) / Fold change /veh GIMAP4 (11747438_a_at) / RFU KRT8 (11758183_x_at) / Fold change /veh KRT8 (11758183_x_at) / RFU CNN1 (11734310_a_at) / Fold change /veh CNN1 (11734310_a_at) / RFU VPS37D (11726825_at) / Fold change /veh VPS37D (11726825_at) / RFU C10orf10 (11716522_x_at) / Fold change /veh C10orf10 (11716522_x_at) / RFU KIR2DL2 /// KIR2DL4 /// KIR2DL5A /// KIR2DL5B /// KIR2DS1 /// KIR2DS2 /// KIR2DS3 /// KIR2DS4 /// KIR3DL3 /// KIR3DL3 /// KIR3DS1 (11738374_at) / Fold change /veh KIR2DL2 /// KIR2DL4 /// KIR2DL5A /// KIR2DL5B /// KIR2DS1 /// KIR2DS2 /// KIR2DS3 /// KIR2DS4 /// KIR3DL3 /// KIR3DL3 /// KIR3DS1 (11738374_at) / RFU C1QL1 (11718748_at) / Fold change /veh C1QL1 (11718748_at) / RFU TMPRSS4 (11747572_a_at) / Fold change /veh TMPRSS4 (11747572_a_at) / RFU HAMP (11756126_x_at) / Fold change /veh HAMP (11756126_x_at) / RFU RNFT2 (11725882_a_at) / Fold change /veh RNFT2 (11725882_a_at) / RFU NR4A2 (11747474_a_at) / Fold change /veh NR4A2 (11747474_a_at) / RFU ABCC12 (11746883_a_at) / Fold change /veh ABCC12 (11746883_a_at) / RFU TMEM136 (11760407_x_at) / Fold change /veh TMEM136 (11760407_x_at) / RFU CLDN22 /// WWC2 (11732394_at) / Fold change /veh CLDN22 /// WWC2 (11732394_at) / RFU HLA-DPB1 (11760878_x_at) / Fold change /veh HLA-DPB1 (11760878_x_at) / RFU SPINT1 (11716480_a_at) / Fold change /veh SPINT1 (11716480_a_at) / RFU GAP43 (11754022_s_at) / Fold change /veh GAP43 (11754022_s_at) / RFU A4GNT (11735810_at) / Fold change /veh A4GNT (11735810_at) / RFU PRB3 (11715151_x_at) / Fold change /veh PRB3 (11715151_x_at) / RFU TUBB4B (11761932_at) / Fold change /veh TUBB4B (11761932_at) / RFU CAPN14 (11732068_a_at) / Fold change /veh CAPN14 (11732068_a_at) / RFU TMCC2 (11721928_a_at) / Fold change /veh TMCC2 (11721928_a_at) / RFU IRGQ (11745062_a_at) / Fold change /veh IRGQ (11745062_a_at) / RFU FAM174B (11720279_a_at) / Fold change /veh FAM174B (11720279_a_at) / RFU TMPRSS4 (11748680_a_at) / Fold change /veh TMPRSS4 (11748680_a_at) / RFU FAM212B (11763350_a_at) / Fold change /veh FAM212B (11763350_a_at) / RFU PLEKHG5 (11743358_a_at) / Fold change /veh PLEKHG5 (11743358_a_at) / RFU ZSCAN30 (11745921_a_at) / Fold change /veh ZSCAN30 (11745921_a_at) / RFU CMKLR1 (11741424_a_at) / Fold change /veh CMKLR1 (11741424_a_at) / RFU LOC101060620 /// MAPK8IP1 (11723275_at) / Fold change /veh LOC101060620 /// MAPK8IP1 (11723275_at) / RFU SPTSSB (11747773_x_at) / Fold change /veh SPTSSB (11747773_x_at) / RFU PRSS12 (11739890_at) / Fold change /veh PRSS12 (11739890_at) / RFU BIN1 (11741810_x_at) / Fold change /veh BIN1 (11741810_x_at) / RFU WNT11 (11732464_a_at) / Fold change /veh WNT11 (11732464_a_at) / RFU C10orf10 (11716521_a_at) / Fold change /veh C10orf10 (11716521_a_at) / RFU C5orf56 (11738089_at) / Fold change /veh C5orf56 (11738089_at) / RFU CYB561 (11721691_x_at) / Fold change /veh CYB561 (11721691_x_at) / RFU ANKRD19P (11752326_a_at) / Fold change /veh ANKRD19P (11752326_a_at) / RFU OR2T12 /// OR2T33 /// OR2T8 (11738714_s_at) / Fold change /veh OR2T12 /// OR2T33 /// OR2T8 (11738714_s_at) / RFU VCAN (11748164_a_at) / Fold change /veh VCAN (11748164_a_at) / RFU JSRP1 (11732532_at) / Fold change /veh JSRP1 (11732532_at) / RFU KRTAP10-11 (11738290_x_at) / Fold change /veh KRTAP10-11 (11738290_x_at) / RFU MYO3A (11730013_a_at) / Fold change /veh MYO3A (11730013_a_at) / RFU EBF3 (11725865_a_at) / Fold change /veh EBF3 (11725865_a_at) / RFU CAMK2N1 (11719241_x_at) / Fold change /veh CAMK2N1 (11719241_x_at) / RFU C5orf56 (11738088_a_at) / Fold change /veh C5orf56 (11738088_a_at) / RFU OLFML3 (11715873_a_at) / Fold change /veh OLFML3 (11715873_a_at) / RFU LOC100653217 /// NTM (11731650_a_at) / Fold change /veh LOC100653217 /// NTM (11731650_a_at) / RFU MAPK11 (11762145_a_at) / Fold change /veh MAPK11 (11762145_a_at) / RFU FIZ1 (11724087_x_at) / Fold change /veh FIZ1 (11724087_x_at) / RFU OASL (11726364_x_at) / Fold change /veh OASL (11726364_x_at) / RFU SOX15 (11748057_x_at) / Fold change /veh SOX15 (11748057_x_at) / RFU CD79A (11719716_a_at) / Fold change /veh CD79A (11719716_a_at) / RFU HIST1H1D (11736915_at) / Fold change /veh HIST1H1D (11736915_at) / RFU CASKIN2 (11723855_a_at) / Fold change /veh CASKIN2 (11723855_a_at) / RFU LOC730098 (11760151_x_at) / Fold change /veh LOC730098 (11760151_x_at) / RFU OR4N2 (11742367_at) / Fold change /veh OR4N2 (11742367_at) / RFU PRRT2 (11749266_a_at) / Fold change /veh PRRT2 (11749266_a_at) / RFU SNX32 (11753110_a_at) / Fold change /veh SNX32 (11753110_a_at) / RFU CDHR5 (11726645_a_at) / Fold change /veh CDHR5 (11726645_a_at) / RFU RCAN1 (11760418_a_at) / Fold change /veh RCAN1 (11760418_a_at) / RFU FAM167A (11723789_a_at) / Fold change /veh FAM167A (11723789_a_at) / RFU FAM26E (11764081_at) / Fold change /veh FAM26E (11764081_at) / RFU ISYNA1 (11749810_s_at) / Fold change /veh ISYNA1 (11749810_s_at) / RFU ACY1 (11761880_at) / Fold change /veh ACY1 (11761880_at) / RFU 11764098_at / Fold change /veh 11764098_at / RFU SAMD14 (11745864_x_at) / Fold change /veh SAMD14 (11745864_x_at) / RFU NPB (11741838_a_at) / Fold change /veh NPB (11741838_a_at) / RFU TMPRSS6 (11731388_a_at) / Fold change /veh TMPRSS6 (11731388_a_at) / RFU KRTAP10-2 (11738614_at) / Fold change /veh KRTAP10-2 (11738614_at) / RFU ARHGAP8 /// PRR5-ARHGAP8 (11727945_x_at) / Fold change /veh ARHGAP8 /// PRR5-ARHGAP8 (11727945_x_at) / RFU KRTAP5-7 /// NADSYN1 (11734609_at) / Fold change /veh KRTAP5-7 /// NADSYN1 (11734609_at) / RFU RASL12 (11751679_a_at) / Fold change /veh RASL12 (11751679_a_at) / RFU CDKN2B (11736163_a_at) / Fold change /veh CDKN2B (11736163_a_at) / RFU PRF1 (11729649_at) / Fold change /veh PRF1 (11729649_at) / RFU, ZNF638 /// ZNF638-IT1 / Fold change vs veh, ZNF638 /// ZNF638-IT1 / RFU, PANK3 / Fold change vs veh, PANK3 / RFU, SH3YL1 / Fold change vs veh, SH3YL1 / RFU, ZEB2 / Fold change vs veh, ZEB2 / RFU, NRIP1 / Fold change vs veh, NRIP1 / RFU, PTTG1IP / Fold change vs veh, PTTG1IP / RFU, CAPN2 / Fold change vs veh, CAPN2 / RFU, MED14 / Fold change vs veh, MED14 / RFU, SNORA58 / Fold change vs veh, SNORA58 / RFU, C1orf63 / Fold change vs veh, C1orf63 / RFU, LRRFIP1 / Fold change vs veh, LRRFIP1 / RFU, NDUFAF7 / Fold change vs veh, NDUFAF7 / RFU, SLC12A2 / Fold change vs veh, SLC12A2 / RFU, IBTK / Fold change vs veh, IBTK / RFU, ESF1 / Fold change vs veh, ESF1 / Fold change vs veh, TMEM50B / RFU, TAOK1 / Fold change vs veh, TAOK1 / RFU, ACBD3 / Fold change vs veh, ACBD3 / RFU, TMA16 / Fold change vs veh, TMA16 / RFU, RWDD3 / Fold change vs veh, RWDD3 / RFU, BCAT1 / Fold change vs veh, BCAT1 / RFU, EDEM3 / Fold change vs veh, EDEM3 / RFU, TMEM33 / Fold change vs veh, TMEM33 / RFU, WDR75 / Fold change vs veh, WDR75 / RFU, AHCTF1 / Fold change vs veh, AHCTF1 / RFU, TFRC / Fold change vs veh, TFRC / RFU, ZDHHC17 / Fold change vs veh, ZDHHC17 / RFU, NOM1 / Fold change vs veh, NOM1 / RFU, ARL8B / Fold change vs veh, ARL8B / RFU, ZBTB11 / Fold change vs veh, ZBTB11 / RFU, TAMM41 / Fold change vs veh, TAMM41 / RFU, KIAA1704 /// LOC100996395 / Fold change vs veh, KIAA1704 /// LOC100996395 / RFU, ING1 / Fold change vs veh, ING1 / RFU, TRMT61B / Fold change vs veh, TRMT61B / RFU, FUBP3 / Fold change vs veh, FUBP3 / RFU, TP53 / Fold change vs veh, TP53 / RFU, TNKS2 / Fold change vs veh, TNKS2 / RFU, ZFP14 / Fold change vs veh, ZFP14 / RFU, ACTR2 / Fold change vs veh, ACTR2 / RFU, PPP3R1 / Fold change vs veh, PPP3R1 / RFU, PIK3R1 / Fold change vs veh, PIK3R1 / RFU, HNRNPA1 / Fold change vs veh, HNRNPA1 / RFU, RNF170 / Fold change vs veh, RNF170 / RFU, ZNF28 / Fold change vs veh, ZNF28 / RFU, RNGTT / Fold change vs veh, RNGTT / RFU, OGT / Fold change vs veh, OGT / RFU, BRD1 / Fold change vs veh, BRD1 / RFU, MARS / Fold change vs veh, MARS / RFU, ZNF655 / Fold change vs veh, ZNF655 / RFU, FAHD1 / Fold change vs veh, FAHD1 / RFU, BDP1 / Fold change vs veh, BDP1 / RFU, LRRCC1 / Fold change vs veh, LRRCC1 / RFU, ARID1A / Fold change vs veh, ARID1A / RFU, ZNF146 / Fold change vs veh, ZNF146 / RFU, ZNF330 / Fold change vs veh, ZNF330 / RFU, GPN3 / Fold change vs veh, GPN3 / RFU, C9orf123 / Fold change vs veh, C9orf123 / RFU, N4BP2L2 / Fold change vs veh, N4BP2L2 / RFU, ARFIP1 / Fold change vs veh, ARFIP1 / RFU, FAM179B / Fold change vs veh, FAM179B / RFU, BCL10 / Fold change vs veh, BCL10 / RFU, UHRF1BP1L / Fold change vs veh, UHRF1BP1L / RFU, BET1 / Fold change vs veh, BET1 / RFU, CNOT2 / Fold change vs veh, CNOT2 / RFU, ZNF268 / Fold change vs veh, ZNF268 / Fold change vs veh, ZNF507 / RFU, DGCR2 / Fold change vs veh, DGCR2 / RFU, WDSUB1 / Fold change vs veh, WDSUB1 / Fold change vs veh, HSP90B1 /// MIR3652 / RFU, ADSS / Fold change vs veh, ADSS / RFU, GK / Fold change vs veh, GK / RFU, ZNF148 / Fold change vs veh, ZNF148 / RFU, TAF9 / Fold change vs veh, TAF9 / RFU, SLC1A5 / Fold change vs veh, SLC1A5 / RFU, SLMO2 / Fold change vs veh, SLMO2 / RFU, ABCC4 / Fold change vs veh, ABCC4 / RFU, LOC101060439 /// RAP1B / Fold change vs veh, LOC101060439 /// RAP1B / RFU, RFX7 / Fold change vs veh, RFX7 / RFU, GTPBP10 / Fold change vs veh, GTPBP10 / RFU, CNEP1R1 / Fold change vs veh, CNEP1R1 / RFU, BIVM-ERCC5 /// ERCC5 / Fold change vs veh, BIVM-ERCC5 /// ERCC5 / RFU, ILF3 / Fold change vs veh, ILF3 / RFU 11762660_at / Fold change /veh 11762660_at / RFU VCAN (11757783_s_at) / Fold change /veh VCAN (11757783_s_at) / RFU DDX43 (11728927_at) / Fold change /veh DDX43 (11728927_at) / RFU KRT8 (11758188_x_at) / Fold change /veh KRT8 (11758188_x_at) / RFU NKD1 (11759106_at) / Fold change /veh NKD1 (11759106_at) / RFU SRD5A1 (11742802_a_at) / Fold change /veh SRD5A1 (11742802_a_at) / RFU TPSAB1 /// TPSB2 (11721975_s_at) / Fold change /veh TPSAB1 /// TPSB2 (11721975_s_at) / RFU GSTM3 (11746129_a_at) / Fold change /veh GSTM3 (11746129_a_at) / RFU IL23R (11737362_x_at) / Fold change /veh IL23R (11737362_x_at) / RFU TMEM51 (11727254_a_at) / Fold change /veh TMEM51 (11727254_a_at) / RFU PIWIL2 (11732686_x_at) / Fold change /veh PIWIL2 (11732686_x_at) / RFU ORM1 (11744905_x_at) / Fold change /veh ORM1 (11744905_x_at) / RFU CCDC152 (11743942_at) / Fold change /veh CCDC152 (11743942_at) / RFU ECM1 (11717891_a_at) / Fold change /veh ECM1 (11717891_a_at) / RFU IL23R (11748794_a_at) / Fold change /veh IL23R (11748794_a_at) / RFU TNFAIP8L3 (11732012_x_at) / Fold change /veh TNFAIP8L3 (11732012_x_at) / RFU MBOAT4 (11741988_at) / Fold change /veh MBOAT4 (11741988_at) / RFU 11764193_at / Fold change /veh 11764193_at / RFU TMEM53 (11763286_at) / Fold change /veh TMEM53 (11763286_at) / RFU MAGEB2 (11727129_at) / Fold change /veh MAGEB2 (11727129_at) / RFU TMEM200A (11744735_a_at) / Fold change /veh TMEM200A (11744735_a_at) / RFU CCDC152 (11751479_a_at) / Fold change /veh CCDC152 (11751479_a_at) / RFU FAM211A (11726209_a_at) / Fold change /veh FAM211A (11726209_a_at) / RFU RGS16 (11746705_a_at) / Fold change /veh RGS16 (11746705_a_at) / RFU VCAN (11755009_s_at) / Fold change /veh VCAN (11755009_s_at) / RFU RHOB (11743442_s_at) / Fold change /veh RHOB (11743442_s_at) / RFU RGS16 (11720943_a_at) / Fold change /veh RGS16 (11720943_a_at) / RFU RGS16 (11720944_at) / Fold change /veh RGS16 (11720944_at) / RFU, VPS4B / Fold change vs veh, VPS4B / RFU, CREB1 / Fold change vs veh, CREB1 / RFU, DNAJC13 / Fold change vs veh, DNAJC13 / RFU, GNAQ / Fold change vs veh, GNAQ / RFU, CDK5R1 / Fold change vs veh, CDK5R1 / RFU, ZRANB3 / Fold change vs veh, ZRANB3 / RFU, CUL4A / Fold change vs veh, CUL4A / RFU, CCNY / Fold change vs veh, CCNY / RFU, UFL1 / Fold change vs veh, UFL1 / RFU, COG3 / Fold change vs veh, COG3 / RFU, DIAPH2 / Fold change vs veh, DIAPH2 / RFU, SKA2 / Fold change vs veh, SKA2 / RFU, AFF3 / Fold change vs veh, AFF3 / RFU, LMF1 / Fold change vs veh, LMF1 / RFU, IPO11 / Fold change vs veh, IPO11 / RFU, DFFB / Fold change vs veh, DFFB / RFU, FOXP1 / Fold change vs veh, FOXP1 / RFU, CARD8 / Fold change vs veh, CARD8 / RFU, STRN3 / Fold change vs veh, STRN3 / RFU, ADK / Fold change vs veh, ADK / RFU, RASSF2 / Fold change vs veh, RASSF2 / RFU, WIPF1 / Fold change vs veh, WIPF1 / RFU, LARP1B / Fold change vs veh, LARP1B / RFU, RASA1 / Fold change vs veh, RASA1 / RFU, RB1 / Fold change vs veh, RB1 / RFU, PPFIA1 / Fold change vs veh, PPFIA1 / RFU, MAT2A / Fold change vs veh, MAT2A / RFU, CCT5 / Fold change vs veh, CCT5 / RFU, WDR92 / Fold change vs veh, WDR92 / RFU, CUX1 / Fold change vs veh, CUX1 / RFU, TTC7A / Fold change vs veh, TTC7A / RFU, TMEM135 / Fold change vs veh, TMEM135 / RFU, DEPTOR / Fold change vs veh, DEPTOR / RFU, CPM / Fold change vs veh, CPM / RFU, DNAJB6 / Fold change vs veh, DNAJB6 / RFU, CACNA2D3 / Fold change vs veh, CACNA2D3 / RFU, DTX4 / Fold change vs veh, DTX4 / RFU, TFCP2 / Fold change vs veh, TFCP2 / RFU, GMCL1 /// GMCL1P1 / Fold change vs veh, GMCL1 /// GMCL1P1 / RFU, AEBP2 / Fold change vs veh, AEBP2 / RFU, SNHG1 /// SNORD22 /// SNORD25 /// SNORD26 /// SNORD27 /// SNORD28 /// SNORD29 /// SNORD31 / Fold change vs veh, SNHG1 /// SNORD22 /// SNORD25 /// SNORD26 /// SNORD27 /// SNORD28 /// SNORD29 /// SNORD31 / Fold change (Aza/veh), C12orf56 (ProbeSet 11735607_a_at) / Fold change (ACY-1035/veh), C12orf56 (ProbeSet 11735607_a_at) / Fold change (Aza/veh), FGFR1OP (ProbeSet 11751329_s_at) / Fold change (ACY-1035/veh), FGFR1OP (ProbeSet 11751329_s_at) / Fold change (Aza/veh), VPS36 (ProbeSet 11739960_a_at) / Fold change (ACY-1035/veh), VPS36 (ProbeSet 11739960_a_at) / RFU SYPL1 (11715823_x_at) / Fold change /veh SYPL1 (11715823_x_at) / RFU IGFBP7 (11715501_s_at) / Fold change /veh IGFBP7 (11715501_s_at) / RFU REEP3 (11722064_at) / Fold change /veh REEP3 (11722064_at) / RFU IGLL1 (11728026_x_at) / Fold change /veh IGLL1 (11728026_x_at): dose or concentration left out as unconfirmed
Settings: MV-4-11 cells, 48 hours

Nc1ncn([C@@H]2O[C@H](CO)[C@@H](O)[C@H]2O)c(=O)n1 [azacitidine]
RFU ORM1 (11744905_x_at): 10.48 RFU
